The subject of one data set is cultured macrophages. The data set can be described thus: GST-GAPDH on cultured macrophages, inflammatory responses. The format is cell-based. To be noted: FIG. 7.
A further data set relates to mice. The data set can be described thus: GST-GAPDH challenge in mice, clinical sickness scoring. The following applies: FIG. 9. The format is in vivo.
The next data set relates to human whole blood. The data set can be described thus: Human whole blood assay, plasma TNF by ELISA. The data set is classed as cell-based. As for the experimental part:
Human whole blood was obtained from anonymous donors from the Long Island Blood Services. The blood was aliquotted into 48-well plates at 250 μl/well. Aliquots were then treated as indicated at 37° C. for four hours. Samples were centrifuged to separate plasma at 5000 rpm for five minutes at room temperature. TNF levels in the plasma were determined by ELISA as described above.
IgG from α-GAPDH #4418 antiserum was purified using protein A/G sepharose (Pierce). Purified IgG was used to test for the ability of α-GAPDH #4418 to neutralize GAPDH activity. Six conditions were tested: GAPDH (10 μg/ml) alone, GAPDH plus non-specific rabbit IgG (100 ug/ml), GAPDH plus α-GAPDH #4418 (100 ug/ml), α-GAPDH #4418 alone, non-specific rabbit IgG alone. The GAPDH plus α-GAPDH #4418 treatment was pre-incubated at room temperature for 30 minutes prior to applying the mixture to the whole blood.

The subject of the next data set is IκBα. The experiment in a line: RAW264.7 cells challenged with GAPDH or LPS, IκBα degradation (NF-κB pathway) by Western blot. The data set is classed as cell-based, murine. To be noted: 50 μg/ml GAPDH or 20 ng/ml LPS, time-course 0-180 min, FIG. 4. As for the experimental part: (§1) RAW264.7 cells at approximately 70% confluence were kept in serum-free Opti-MEM I for 20 minutes prior to treatments. Cells were challenged with either GAPDH or LPS in a time-course with […] time points (180 min, 120 min, 60 min, 30 min, 15 min, and 0 min). The GAPDH treatment consisted of purified GAPDH diluted to 50 μg/ml in Opti-MEM I. The LPS treatment consisted of LPS (sonicated approximately 30 minutes before use) diluted to 20 ng/ml into Opti-MEM I. Treatments used for time-course experiments were incubated in a 37° C. water bath to maintain culture temperature between time points and sonicated for five minutes before use. […] Bound IκBα antibody was detected using a 1:2000 dilution of HRP-conjugated anti-mouse IgG in 2.5% milk; bound JNK antibody was detected using a 1:2000 dilution of HRP-conjugated anti-rabbit IgG in 2.5% milk. […]
(§2) RAW264.7 macrophage-like cells were challenged with either 50 μg/ml GAPDH or 20 ng/ml LPS in a time-course consisting of six time points ranging from 180 min to 0 min. […] Protein assays were conducted on cell lysates in order to standardize the quantity of protein loaded into each well of SDSPAGE gels for separation. […]

For the next data set, the system named is JNK. The data set can be described thus: RAW264.7 cells challenged with GAPDH or LPS, JNK activation by Western blot. The data set is classed as cell-based, murine. To be noted: 50 μg/ml GAPDH or 20 ng/ml LPS. How it is done:
as §1, §2

For a further data set, the system named is RAW264.7 cells. The data set can be described thus: RAW264.7 cells challenged with GAPDH for cytokine (TNF) elicitation, ELISA. The format is cell-based, murine. To be noted: 50 μg/ml GAPDH, 4 hours, FIG. 2. How it is done: Murine macrophage-like RAW264.7 cells were obtained from the American Type Tissue collection (ATTC). The RAW264.7 cells were cultured in Dulbecco's Modified Essential Medium (DMEM) (Gibco) supplemented with 1% heat-inactivated fetal bovine serum (FBS) (BioWhittaker), and 2 mM L-glutamine, and 100 μg/ml penicillin and streptomycin (all from Sigma). Raw264.7 cultures were incubated at 37° C. under 5% CO2. The cells were serum-deprived in 1% FBS medium for the purpose of slowing the cell cycle to synchronize the cell population. Serum deprivation of the cells also limits available growth factors, minimizing the level of intracellular signaling in pathways that lead to the activation of mitogen-activated protein (MAP) kinases. It is interesting to note that immune challenges such as bacterial endotoxin (LPS) also activate MAP kinases to generate inflammatory responses, and thus high levels of FBS would interfere with the detection of MAP kinase signals that are elicited by the specific immune challenges that this study investigates. RAW264.7 cells were used at approximately 70% confluence, and all treatments were carried out in serum-free Opti-MEM I medium.
RAW264.7 cells at approximately 70% confluence were kept in serum-free Opti-MEM I for 20 minutes prior to treatments. […]

Another data set deals with Peritoneal macrophages. The experiment in a line: TNF response of peritoneal macrophages from wildtype, TLR2, TLR4 or RAGE deficient mice to GAPDH. The format is cell-based. The following applies: FIG. 3; for TNF release: 50 μg/ml GAPDH. How it is done: Peritoneal macrophages harvested from Wildtype, Toll-like receptor (TLR) 2, TLR4, or Receptor for Advanced Glycation Endproducts (RAGE) deficient mice were resuspended in RPMI1640 medium (Gibco) supplemented with 10% FBS and 2 mM L-glutamine, and 100 μg/ml penicillin and streptomycin, and plated at 1×10^6 cells/well into 24-well Primaria tissue culture plates (Falcon). Cultures were maintained for 24 h at 37° C. under 5% CO2. 30 minutes prior to experimentation, culture medium was replaced by serum free Opti-MEM I medium, and all treatments were conducted in serum free Opti-MEM I medium as described.
RAW264.7 cells at approximately 70% confluence were kept in serum-free Opti-MEM I for 20 minutes prior to treatments. Cells were challenged with a concentration range of purified recombinant GAPDH (produced on site) to determine concentration-dependent responsiveness of inflammatory mediator production. The concentration range consisted of seven concentrations of GAPDH in a five-fold dilution series (50 μg/ml, 10 μg/ml, 2 μg/ml, 0.4 μg/ml, 0.08 μg/ml, 0.016 μg/ml, 0 μg/ml). Cells were incubated at 37° C. and 5% CO2 for 4 hours (TNF). After treatment, the media was harvested and transferred to tubes, and M-cell lysis reagent was applied to the cells. […] The media samples were applied to Enzyme-Linked ImmunoSorbent Assays (ELISA) directed against mouse-TNF (all ELISA reagents were obtained from R+D systems). These ELISA plates were set up and run according to the manufacturer's recommendations. Briefly, samples were incubated overnight in the ELISA plate on a rocker at 4° C. Plates were washed 3× with phosphate-buffered saline supplemented with 0.05% TWEEN-20, and detection antibody diluted at 1:2000 in 1% bovine serum albumin (BSA) was applied to the plates for 2 hours. The plates were washed again as above, and strepavidin-HRP diluted at 1:2000 in 1% BSA was applied to the plates for 15 minutes. The plates were washed again as above, then developed by applying substrate reagent to each well. Reactions were stopped by adding 2M H2SO4 when the standard curve had become obvious, typically 8 to 10 minutes.

Take “GST-GAPDH: purified recombinant GST-GAPDH, a stable tetramer”: the “inflammatory responses from cultured macrophages” value in the data set on cultured macrophages is “elicits inflammatory responses”. The “sickness by clinical scoring parameters (piloerection, closed eyes, diarrhea, tremoring, activity, relative temperature)” value in the data set with mice was “cause sickness”. In the data set on human whole blood (FIG. 8), the “inflammatory cytokine response from human blood” value was “elicit inflammatory cytokine response”. The “interaction of inflammatory response with LPS” value in the data set with human whole blood (human blood, FIG. 8) is reported as “synergistic with LPS”.
“GAPDH: purified recombinant human GAPDH (produced on site), tested as candidate inflammatory cytokine”: in the data set on IκBα, the “basal level of IκBα (degradation)” value was “decreased dramatically and was nearly undetectable by 30 minutes post treatment”. Also, the “increase in activated JNK levels” value is “approximately eight-fold” with JNK (30 minutes after challenge) and “approximately fifteen-fold” with JNK (60 minutes after challenge). The TNF release result is recorded as “approximately 2250 pg/mg of cellular protein” in the data set with RAW264.7 cells, “approximately 4500 pg TNF/mg cell protein” with Peritoneal macrophages (RAGE deficient macrophages), ~5000 pg TNF/mg cell protein in the data set on Peritoneal macrophages (TLR2 deficient macrophages) and “approximately 6000 pg TNF/mg cellular protein” in the data set with Peritoneal macrophages (wild type macrophages). Further, the TNF response result in the data set on Peritoneal macrophages (TLR4 deficient macrophages) was “did not mount a significant response”. In the data set on human whole blood (10 μg/ml challenge, four hours, human whole blood, FIG. 5), the “plasma TNF levels” value was “approximately 450 pg/ml”.

Source of the values: patent US8715658B2, “Methods for treating conditions mediated by the inflammatory cytokine cascade using GAPDH inhibitors” (The Feinstein Institute for Medical Research, priority 2009, dated 2014).
